Drawing on patent US20170158702A1, “MULTIVALENT RAS BINDING COMPOUNDS” (KYRAS THERAPEUTICS, INC., priority 2015, published 2017), this text covers EC50 for 37 compounds.

Structures are written as SMILES. Where a name gives a salt, the structure may show the parent alone.

What all share (assay type): cell-based
One assay deals with NCI-H460. Kind of assay: Viability assay with NCI-H460 (CellTiter-Glo cytotoxicity assay, 72 h). The note with it: NCI-H460 cell line, 72 h after compounds addition. In short, it runs like this:
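NCI-H460 cells, RPMI 1640 + 10% FBS, seeded 1200/well and adhered overnight, then exposed to compounds at 9 points, 2-fold dilution, in triplicate, 0.5% DMSO final. Cellular ATP measured by CellTiter-Glo luminescence 72 h after addition.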

A further assay deals with MIA PaCa-2. Briefly: Viability assay with MIA PaCa-2. To be noted: MIA PaCa-2, viability assay per Example 57. In short, it runs like this: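 MIA PaCa-2 cells were seeded at 1200/well, allowed to adhere overnight, then treated in triplicate with 9-point 2-fold compound dilutions at 0.5% final DMSO. Viability was measured as cellular ATP by CellTiter-Glo luminescence 72 h after compound addition.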

For a further assay, the system named is HT-29. Kind of assay: Viability assay with HT-29. To be noted: HT-29, viability assay per Example 57. The method, then: NCI-H460 (Epithelial lung tissue; carcinoma; large cell lung cancer) were cultured in RPMI Medium 1640 (Invitrogen-22400105) supplemented with 10% fetal bovine serum (FBS; Invitrogen-10099141). All the cell lines were maintained in a humidified incubator at 37° C. with 5% CO2. Cell culture media and supplements were purchased from Invitrogen, and tissue culture flasks were purchased from Corning, 96-well plates were purchased from Greiner. CellTiter-Glo Luminescent Cell Viability Assay kits were purchased from Promega (Promega-G7573), cells counter Vi-Cell was purchased from Beckman, D300e digital dispenser was purchased from Tecan, detection instrument Envision was purchased from PerkinElmer.
Paclitaxel was purchased from SELLECK, test compounds, such as any one of the compounds disclosed herein, attained solubility in DMSO and when diluted into culture media. DMSO, solutions containing the test compounds, and culture media were warmed to 37° C. or room temperature for the solution preparation and dilutions.
NCI-H460 Cell line were seeded in 96-well plates (1200/well) and allowed to adhere to overnight (100 uL/well), for drug treatments with 2 fold dilution, 9 dose points, triplicates or vehicle control, compound stock solutions were prepared in DMSO and use D300e digital dispenser to add compounds to the wells to give the indicated final drug concentrations. Final DMSO concentration was 0.5%. Cellular ATP concentrations were assessed by using the CellTiter-Glo Cell Viability Assay as per the manufacturer's instructions 72 h after compounds addition. Additional cells lines were assayed with any one of the compounds disclosed herein according to the procedures described for the viability assay with NCI-H460.
A viability assay with HT-29 (Colorectal adenocarcinoma) was performed with compounds listed in Table 18 according to the procedures described in Example 57.

A word on the EC50: it is the concentration giving half of the maximal effect. Turning to `NCCCn1cc(-c2ccc(OC(F)(F)F)cc2)c2cc(CN3CCC(O)CC3)ccc21` [C295; HCl], the EC50 in the assay on NCI-H460, in the assay with MIA PaCa-2 and with HT-29 was at most 5 µM each time.

As to `NCCCn1cc(-c2cc[nH]n2)c2cc(CN3CCN(Cc4ccccc4Cl)CC3)ccc21` [C190; HCl], the EC50 with NCI-H460, in the assay with MIA PaCa-2 and in the assay on HT-29 was 5 to 10 µM each time.

As for `COc1cccc(Cl)c1-c1cn(CCCN)c2ccc(CN3CCN(Cc4c(Cl)cccc4Cl)CC3)cc12` [C154; HCl], the EC50 in the assay on NCI-H460, in the assay on MIA PaCa-2 and in the assay on HT-29 was at most 5 µM in each case.

As to `CC1(C)CCN(Cc2ccc3c(c2)c(-c2ccc(OC(F)(F)F)cc2CN)cn3CCCN)CC1` [C272; HCl], the EC50 is at most 5 µM with NCI-H460, 5 to 10 µM with MIA PaCa-2 and at most 5 µM in the assay with HT-29.

Take `COc1cc(OC)cc(OC2CCN(Cc3ccc4c(c3)c(-c3ccc(OC(F)(F)F)cc3CN)cn4CCCN)CC2)c1` [C281; HCl]: the EC50 in the assay with NCI-H460, in the assay with MIA PaCa-2 and in the assay with HT-29 was at most 5 µM throughout.

With `NCCCn1cc(-c2ccc(OC(F)(F)F)cc2CN)c2cc(CN3CCC4(CCCN(Cc5ccccc5Cl)C4)CC3)ccc21` [C253; HCl], the EC50 with NCI-H460, in the assay with MIA PaCa-2 and with HT-29 was at most 5 µM in each case.

With `NCCCn1cc(-c2ccc(OC(F)(F)F)cc2N)c2cc(CN3CCN(Cc4ccccc4Cl)CC3)ccc21` [C239; Formic Acid], the EC50 in the assay on NCI-H460, in the assay with MIA PaCa-2 and in the assay on HT-29 was at most 5 µM each time.

As for `COc1cccc(NC2CCN(Cc3ccc4c(c3)c(-c3ccc(OC(F)(F)F)cc3CN)cn4CCCN)CC2)c1` [C277; HCl], the EC50 in the assay with NCI-H460, in the assay on MIA PaCa-2 and in the assay on HT-29 was at most 5 µM throughout.

Take `NCCCn1cc(-c2ccc(OC(F)(F)F)cc2)c2cc(CN3CCN(Cc4ccc(Cl)c(Cl)c4)CC3)ccc21` [C138; HCl]: the EC50 in the assay with NCI-H460, in the assay on MIA PaCa-2 and in the assay on HT-29 was at most 5 µM throughout.

For the compound `NCCCn1cc(-c2ccc(OC(F)(F)F)cc2)c2cc(CN3CCSCC3)ccc21` [C293; HCl], the EC50 with NCI-H460, in the assay with MIA PaCa-2 and in the assay on HT-29 was at most 5 µM throughout.

Turning to `FC(F)(F)Oc1ccc(-c2cn(CC3CCCNC3)c3ccc(CN4CCN(Cc5ccccc5Cl)CC4)cc23)cc1` (stereo not drawn) [C230; HCl], the EC50 in the assay with NCI-H460, in the assay with MIA PaCa-2 and with HT-29 was at most 5 µM in each case.

`NCCCn1cc(-c2ccc(OC(F)(F)F)cc2)c2cc(CN3CCC(Oc4cccc(Cl)c4)CC3)ccc21` [C236; HCl]: the EC50 in the assay on NCI-H460, with MIA PaCa-2 and in the assay on HT-29 was at most 5 µM throughout.

For the compound `NCCCn1cc(-c2ccc(OC(F)(F)F)cc2)c2cc(Nc3ccc(Nc4ccccc4Cl)nc3)ccc21` [C246; Formic Acid], the EC50 was in the range of 5 to 10 µM with NCI-H460, 5 to 10 µM with MIA PaCa-2 and 10 to 30 µM with HT-29.

As to `NCCCn1nc2ccc(CN3CCN(Cc4ccccc4Cl)CC3)cc2c1-c1ccc(OC(F)(F)F)cc1` [C182; HCl], the EC50 in the assay with NCI-H460, with MIA PaCa-2 and with HT-29 was at most 5 µM each time.

Consider `COc1ccccc1CN1CCN(Cc2ccc3c(c2)c2ccccc2n3CCCN)CC1` [C268; HCl], for which the EC50 was 5 to 10 µM in the assay with NCI-H460, 5 to 10 µM with MIA PaCa-2 and at most 5 µM with HT-29.

As for `NCCCn1cc(-c2ccc(C(N)=O)cc2)c2cc(CN3CCN(Cc4ccccc4Cl)CC3)ccc21` [C180; HCl], the EC50 with NCI-H460, in the assay with MIA PaCa-2 and in the assay on HT-29 was at most 5 µM in each case.

In the case of `NC1CCC(n2cc(-c3ccc(OC(F)(F)F)cc3)c3cc(CN4CCN(Cc5ccccc5Cl)CC4)ccc32)CC1` (stereo not drawn) [C212; HCl], the EC50 in the assay on NCI-H460, in the assay with MIA PaCa-2 and with HT-29 was at most 5 µM each time.

As for `NCCCn1cc(-c2ccc(OC(F)(F)F)cc2)c2cc(CN3CCN(Cc4ccc(Cl)cc4Cl)CC3)ccc21` [C135; HCl], the EC50 in the assay with NCI-H460, in the assay on MIA PaCa-2 and in the assay on HT-29 was at most 5 µM each time.

As to `COc1cccc(C(C)(C)N2CCN(Cc3ccc4c(c3)c(-c3ccc(OC(F)(F)F)cc3CN)cn4CCCN)CC2)c1` [C283; HCl], the EC50 in the assay with NCI-H460, with MIA PaCa-2 and in the assay on HT-29 was at most 5 µM in each case.

Take `CNCc1cc(OC(F)(F)F)ccc1-c1cn(CCCN)c2ccc(CN3CCN(Cc4ccccc4Cl)CC3)cc12` [C238; HCl]: the EC50 in the assay on NCI-H460, in the assay on MIA PaCa-2 and in the assay on HT-29 was at most 5 µM throughout.

As to `Cc1cc(Cl)ccc1CN1CCN(Cc2ccc3c(c2)c(-c2ccc(OC(F)(F)F)cc2)cn3CCCN)CC1` [C139; HCl], the EC50 in the assay on NCI-H460, in the assay with MIA PaCa-2 and in the assay with HT-29 was at most 5 µM in each case.

`NCCCn1cc(-c2ccc(OC(F)(F)F)cc2)c2cc(NC3CCN(Cc4ccccc4Cl)CC3)ccc21` [C129; HCl]: the EC50 in the assay on NCI-H460, in the assay with MIA PaCa-2 and with HT-29 was at most 5 µM each time.

With `NCc1cc(OC(F)(F)F)ccc1-c1cn(C2CCNCC2)c2ccc(CN3CCN(Cc4ccccc4Cl)CC3)cc12` [C254; HCl], the EC50 in the assay on NCI-H460, with MIA PaCa-2 and with HT-29 was at most 5 µM in each case.

Regarding `NCCCn1cc(-c2ccc(OC(F)(F)F)cc2)c2cc(CN3CCN(Cc4ccn[nH]4)CC3)ccc21` [C187; HCl], the EC50 in the assay on NCI-H460, with MIA PaCa-2 and in the assay with HT-29 was at most 5 µM in each case.

For the compound `COc1cc(NC2CCN(Cc3ccc4c(c3)c(-c3ccc(OC(F)(F)F)cc3CN)cn4CCCN)CC2)cc(OC)c1` [C278; HCl], the EC50 in the assay on NCI-H460, in the assay on MIA PaCa-2 and in the assay with HT-29 was at most 5 µM each time.

`NCCCn1cc(-c2ccc(OC(F)(F)F)cc2CN)c2cc(CN3CCCCC3)ccc21` [C260; HCl]: the values for the EC50 in the assay with NCI-H460, in the assay on MIA PaCa-2 and with HT-29 were 5 to 10 µM, at most 5 µM and 5 to 10 µM, respectively.

Regarding `NCCCn1cc(-c2ccc(OC(F)(F)F)cc2CN)c2cc(CN3CCC(O)CC3)ccc21` [C290; HCl], the EC50 in the assay with NCI-H460, in the assay with MIA PaCa-2 and in the assay with HT-29 was 5 to 10 µM throughout.

Take `NCCCn1cc(-c2ccc(OC(F)(F)F)cc2CN)c2cc(CN3CCNC(=O)C3)ccc21` [C258; Formic Acid]: the half-maximal effective concentration (EC50) with NCI-H460, in the assay on MIA PaCa-2 and in the assay on HT-29 was 5 to 10 µM in each case.

Turning to `NCCCn1cc(-c2ccc(OC(F)(F)F)cc2)c2cc(CN3CCC(Nc4ccccc4Cl)CC3)ccc21` [C213; Formic Acid], the EC50 in the assay on NCI-H460, in the assay on MIA PaCa-2 and in the assay with HT-29 was at most 5 µM in each case.

For the compound `Cn1nccc1CN1CCN(Cc2ccc3c(c2)c(-c2ccc(OC(F)(F)F)cc2)cn3CCCN)CC1` [C128; HCl], the EC50 with NCI-H460, in the assay on MIA PaCa-2 and in the assay with HT-29 was at most 5 µM each time.

On to `COc1cccc(CC2CCN(Cc3ccc4c(c3)c(-c3ccc(OC(F)(F)F)cc3CN)cn4CCCN)CC2)c1` [C262; HCl], for which the EC50 with NCI-H460, in the assay on MIA PaCa-2 and with HT-29 was at most 5 µM each time.

With `COc1cccc(CN(C)CCN(C)Cc2ccc3c(c2)c(-c2ccc(OC(F)(F)F)cc2CN)cn3CCCN)c1` [C296; HCl], the EC50 with NCI-H460, with MIA PaCa-2 and with HT-29 was at most 5 µM in each case.

Regarding `COc1ccc(CN2CCN(Cc3ccc4c(c3)c(-c3ccc(OC(F)(F)F)cc3CN)cn4CCCN)CC2)cc1` [C266; HCl], the EC50 in the assay on NCI-H460, in the assay on MIA PaCa-2 and in the assay on HT-29 was at most 5 µM each time.

On to `FC(F)(F)Oc1ccc(-c2cn(CC3CCNCC3)c3ccc(CN4CCC(Cc5ccccc5Cl)CC4)cc23)cc1` [C228; HCl], for which the EC50 in the assay with NCI-H460, with MIA PaCa-2 and in the assay on HT-29 was at most 5 µM throughout.

On to `COc1cccc(CC2(CO)CCN(Cc3ccc4c(c3)c(-c3ccc(OC(F)(F)F)cc3CN)cn4CCCN)CC2)c1` [C294; HCl], for which the EC50 in the assay with NCI-H460, with MIA PaCa-2 and in the assay on HT-29 was at most 5 µM each time.

Regarding `NCCCn1cc(-c2ccc(OC(F)(F)F)cc2CN)c2cc(CN3CCC(Cc4ccccc4Cl)CC3)ccc21` [C221; HCl], the EC50 with NCI-H460, in the assay with MIA PaCa-2 and in the assay on HT-29 was at most 5 µM in each case.

For the compound `NCCCn1cc(-c2ccc(OC(F)(F)F)cc2)c2cc(CN3CCN(CCc4ccccc4Cl)CC3)ccc21` [C140; HCl], the EC50 with NCI-H460, in the assay with MIA PaCa-2 and in the assay with HT-29 was at most 5 µM in each case.
